Measured values as given in patent US20140228303A1, “NOVEL SGLT INHIBITORS” (Panacea Biotec Ltd, priority 2011, published 2014).

Tests used:
mouse SGLT-2 = target: T1, mouse SGLT-2 (Mus musculus, UniProt Q923I7); experiment: Methyl-α-D-[U-14C]Glucopyranoside uptake assay for SGLT-2 in CHO-K1 cells expressing mSGLT-2; type: cell-based; details: N.E. = Not Effective
T1 construct: Full-length mouse SGLT-2 cDNA was amplified from C57BL/6J mouse kidneys and introduced in the pcDNA3.1(+) expression vector; expressed in transfected cells
T1 sequence (Q923I7 1-670): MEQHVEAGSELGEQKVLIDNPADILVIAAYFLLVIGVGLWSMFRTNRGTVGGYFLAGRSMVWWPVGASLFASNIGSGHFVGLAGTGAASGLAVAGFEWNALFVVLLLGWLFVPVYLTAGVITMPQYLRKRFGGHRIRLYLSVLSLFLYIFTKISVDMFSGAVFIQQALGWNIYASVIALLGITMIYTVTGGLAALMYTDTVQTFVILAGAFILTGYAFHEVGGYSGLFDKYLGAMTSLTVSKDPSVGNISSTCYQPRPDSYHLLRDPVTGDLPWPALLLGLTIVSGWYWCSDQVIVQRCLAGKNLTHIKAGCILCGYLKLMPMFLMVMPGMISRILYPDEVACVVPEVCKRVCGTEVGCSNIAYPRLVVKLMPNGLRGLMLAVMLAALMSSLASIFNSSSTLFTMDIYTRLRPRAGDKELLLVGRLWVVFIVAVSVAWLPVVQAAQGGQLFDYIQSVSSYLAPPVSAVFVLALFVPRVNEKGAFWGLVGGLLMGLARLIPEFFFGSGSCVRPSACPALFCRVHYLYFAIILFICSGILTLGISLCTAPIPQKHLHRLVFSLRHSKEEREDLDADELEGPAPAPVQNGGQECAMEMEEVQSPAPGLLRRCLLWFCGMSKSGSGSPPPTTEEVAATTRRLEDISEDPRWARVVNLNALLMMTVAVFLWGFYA
Description: Preparation of Mouse SGLT-2 Expressing Cells
Full-length mouse SGLT-2 cDNA was amplified from C57BL/6J mouse kidneys and introduced in the pcDNA3.1(+) expression vector (Invitrogen, Inc.) and propagated in Escherichia coli strain DH5α using Luria-Bertani (LB) medium containing ampicillin. […] Stably transfected cells were selected using G418 antibiotic selection pressure.
Methyl-α-D-[U-^14C]Glucopyranoside Uptake Assay for SGLT-2
(§1) Cells expressing mSGLT-2 were seeded on 96-well tissue culture plates (Greiner, Inc.) in RPMI containing 10% FBS and 400 μg/mL G418 (0.8×10^5 cells per well in 200 μL medium) and incubated at 37° C. under 5% carbon dioxide for 24 h prior to the assay. Cells were washed twice with 200 μL of either sodium buffer (140 mM NaCl, 4.7 mM KCl, 2.2 mM CaCl2, 1.2 mM MgCl2, 10 mM Tris/Hepes, pH 7.4) or sodium-free buffer (137 mM N-methyl-glucamine, 4.7 mM KCl, 2.2 mM CaCl2, 1.2 mM MgCl2, 10 mM Tris/Hepes, pH 7.4). Reaction mixture containing test compounds at different concentrations diluted in assay buffer, 0.1 mM unlabeled Methyl-α-D-glucopyranoside and 1 μCi/well methyl-α-D[U-^14C]glucopyranoside (American Radiochemicals) was added per well of a 96-well plate and incubated at 37° C. for 1 h. Cells were washed thrice with 200 μL of wash buffer (140 mM NaCl, 4.7 mM KCl, 2.2 mM CaCl2, 1.2 mM MgCl2, 10 mM Tris/Hepes, pH 7.4 containing 500 μM phlorizin) and lysed using 50 μL of 0.25N NaOH. Methyl-α-D[U-^14C]glucopyranoside uptake was quantitated using a Top count scintillation counter (PerkinElmer, Inc.). All the test compounds were assayed in triplicates.

human SGLT-1 = target: T2, human SGLT-1 (Homo sapiens, UniProt P13866); experiment: Methyl-α-D-[U-14C]Glucopyranoside uptake assay for SGLT-1 in CHO-K1 cells expressing hSGLT-1; type: cell-based; details: N.E. = Not Effective
T2 construct: Full-length human SGLT-1 cDNA in the pCMV-XL-Neo expression vector was obtained from Origene Corporation
T2 sequence (P13866 1-664): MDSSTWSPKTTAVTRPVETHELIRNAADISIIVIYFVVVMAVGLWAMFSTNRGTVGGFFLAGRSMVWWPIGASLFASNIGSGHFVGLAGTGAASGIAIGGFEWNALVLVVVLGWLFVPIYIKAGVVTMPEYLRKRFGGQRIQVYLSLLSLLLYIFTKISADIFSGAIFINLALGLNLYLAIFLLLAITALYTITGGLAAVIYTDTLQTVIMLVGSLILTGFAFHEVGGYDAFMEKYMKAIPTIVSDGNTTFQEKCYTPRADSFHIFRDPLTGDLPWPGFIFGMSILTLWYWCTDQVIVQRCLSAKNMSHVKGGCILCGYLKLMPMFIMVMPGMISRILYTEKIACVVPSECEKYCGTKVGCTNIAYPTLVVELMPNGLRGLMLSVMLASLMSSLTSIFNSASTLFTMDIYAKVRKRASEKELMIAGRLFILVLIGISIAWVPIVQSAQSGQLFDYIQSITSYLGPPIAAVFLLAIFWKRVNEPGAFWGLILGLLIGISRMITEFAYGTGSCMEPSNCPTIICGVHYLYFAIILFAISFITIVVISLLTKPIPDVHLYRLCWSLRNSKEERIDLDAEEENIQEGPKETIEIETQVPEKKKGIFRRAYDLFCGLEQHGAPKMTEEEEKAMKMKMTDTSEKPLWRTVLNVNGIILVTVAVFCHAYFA
Description: Preparation of Human SGLT-1 Expressing Cells
Full-length human SGLT-1 cDNA in the pCMV-XL-Neo expression vector was obtained from Origene Corporation and propagated in Escherichia coli strain DH5α using Luria-Bertani (LB) medium containing ampicillin. […] Stably transfected cells were selected using G418 antibiotic selection pressure.
Methyl-α-D-[U-^14C]Glucopyranoside Uptake Assay for SGLT-1
as §1, with “hSGLT-1” for “mSGLT-2”, “800 μg/ml” for “400 μg/mL”, “compounds” for “compounds at different concentrations”, “1” for “0.1”, “methyl-α-D-[U-^14C]glucopyranoside” for “methyl-α-D[U-^14C]glucopyranoside”, “Methyl-α-D-[U-^14C]glucopyranoside” for “Methyl-α-D[U-^14C]glucopyranoside”

C57BL/6J mice = experiment: Estimation of urinary glucose in C57BL/6J mice; type: in vivo, mouse; details: urine collected over 24 h
Description: Estimation of Urinary Glucose in C57BL/6J Mice
C57BL/6J mice were fasted 4 h before drug treatment. Fasted mice were weighed and randomized into different groups based on their body weight (n=6). At time T0 test compounds and standard compounds suspended in 0.25% CMC or PEG 400 formulation, were administered to respective groups and kept in metabolic cages (6 mice/cage) after dosing. Animals were fed after drug administration and urine was collected over a period of 24 h. Urinary volume was measured and urinary glucose was estimated using Merckotest Glucose Reagent (Merck Specialities Pvt. Ltd., India).

Rats = experiment: Estimation of urinary glucose in rat; type: in vivo; details: urine collected over 24 hrs
Description: Estimation of Urinary Glucose in Rat
Rats were fasted overnight (14 hrs) before drug treatment. Fasted rats were weighed and randomized into different groups based on their body weight (n=4). At time To test compounds and standard compound suspended in 0.25% C.M.C. or PEG 400 formulation were administered to respective groups and kept the animals in metabolic cages (1 rat/cage) after dosing. Animals were fed after drug administration and urine was collected over a period of 24 hrs. Urine volume was measured and urinary glucose was estimated using Merckotest Glucose Reagent (Merck Specialities Pvt. Ltd., India).

% inhibition of Methyl-α-D-[U-14C] Glucopyranoside uptake (CHO-K1 cells) mediated by SGLT-2 (mouse SGLT-2; 0.1 nM compound): 16.73%
% inhibition of Methyl-α-D-[U-14C] Glucopyranoside uptake (CHO-K1 cells) mediated by SGLT-2 (mouse SGLT-2; 1 nM compound): 26.19%
% inhibition of Methyl-α-D-[U-14C] Glucopyranoside uptake (CHO-K1 cells) mediated by SGLT-2 (mouse SGLT-2; 10 nM compound): 73.13%
% inhibition of Methyl-α-D-[U-14C] Glucopyranoside uptake (CHO-K1 cells) mediated by SGLT-2 (mouse SGLT-2; 100 nM compound): 92.85%
% inhibition of Methyl-α-D-[U-14C] Glucopyranoside uptake (CHO-K1 cells) mediated by SGLT-1 (human SGLT-1; 100 nM compound): N.E.
% inhibition of Methyl-α-D-[U-14C] Glucopyranoside uptake (CHO-K1 cells) mediated by SGLT-1 (human SGLT-1; 1 μM compound): 33.10%
% inhibition of Methyl-α-D-[U-14C] Glucopyranoside uptake (CHO-K1 cells) mediated by SGLT-1 (human SGLT-1; 10 μM compound): 78.87%
Substance: 1-(4-(2-chloro-5-((2S,3R,4R,5S,6R)-3,4,5-trihydroxy-6-(hydroxymethyl)tetrahydro-2H-pyran-2-yl)benzyl)phenyl)ethanone O-methyl oxime [Compound 2]
UGE in mice (in mg/g of feed consumed) at 3 mpk (C57BL/6J mice): 88.9 mg/g of feed consumed
UGE in rat (in mg/g of feed consumed) at 3 mpk (Rats): 68.6 mg/g of feed consumed
